Laboratory results: patent publication US20070128217A1 (priority 2003, published 2007)

Columns and labels:
[1] = system: rabbit serum obtained by immunizing a rabbit with the SARS-CoV strain Frankfurt 1; type: binding; design: Binding of a rabbit serum to linear peptides / Binding of a rabbit serum to looped peptides / Rabbit serum linear peptides / Rabbit serum looped peptides / Binding of a rabbit serum to linear peptides of protein N of SARS-CoV Urbani (Rabbit serum linear peptides) / Binding of a rabbit serum to looped/cyclic peptides of protein N of SARS-CoV Urbani (Rabbit serum looped peptides): unit not given here
[2] = system: antibodies in sera from SARS patients (sera 1a, 1b, 2, 6, 37, 62, London, SARS-yellow, SARS-green); type: binding, human; design: Binding of serum 6 to linear peptides of protein X1 of SARS-CoV Urbani / Binding of serum 37 to linear peptides of protein X1 of SARS-CoV Urbani / Binding of serum 6 to looped/cyclic peptide (PEPSCAN-ELISA) / Binding of serum 37 to looped/cyclic peptide (PEPSCAN-ELISA) / Binding of serum 37 to looped/cyclic peptides of protein X1 of SARS-CoV Urbani / Binding of serum 6 to linear peptides of protein X2 / Binding of serum 37 to linear peptides of protein X2 / Binding of serum 37 to looped/cyclic peptides of protein X2 of SARS-CoV Urbani / Binding of serum 6 to linear peptides of protein M of SARS-CoV Urbani / Binding of serum 37 to linear peptides of protein M of SARS-CoV Urbani / Binding of serum 6 to looped/cyclic peptides of protein M of SARS-CoV Urbani / Binding of serum 37 to looped/cyclic peptides of protein M of SARS-CoV Urbani / Binding of serum 6 to linear peptides of protein X3 of SARS-CoV Urbani / Binding of serum 37 to linear peptides of protein X3 of SARS-CoV Urbani / Binding of serum 37 to looped/cyclic peptides of protein X3 of SARS-CoV Urbani / Binding of serum 6 to linear peptides of protein X4 of SARS-CoV Urbani / Binding of serum 37 to linear peptides of protein X4 of SARS-CoV Urbani / Binding of serum 37 to looped/cyclic peptides of protein X4 of SARS-CoV Urbani / Binding of serum 6 to linear peptides of protein X5 of SARS-CoV Urbani / Binding of serum 37 to linear peptides of protein X5 of SARS-CoV Urbani / Binding of serum 37 to looped/cyclic peptides of protein X5 of SARS-CoV Urbani / Binding of serum 6 to linear peptides of protein N of SARS-CoV Urbani / Binding of serum 37 to linear peptides of protein N of SARS-CoV Urbani / Binding of serum 6 to linear peptide (PEPSCAN-ELISA) / Binding of serum 1a to looped/cyclic peptides of protein N of SARS-CoV Urbani / Binding of serum 1b to looped/cyclic peptides of protein N of SARS-CoV Urbani / Binding of serum 2 to looped/cyclic peptides of protein N of SARS-CoV Urbani / Binding of serum 6 to looped/cyclic peptides of protein N of SARS-CoV Urbani / Binding of serum 37 to looped/cyclic peptides of protein N of SARS-CoV Urbani / Binding of serum 62 to looped/cyclic peptides of protein N of SARS-CoV Urbani / Binding of serum London to looped/cyclic peptides of protein N of SARS-CoV Urbani / Binding of serum SARS-green to looped/cyclic peptides of protein N of SARS-CoV Urbani: unit not given here
[3] = system: control sera (pooled serum of ten healthy LUMC hospital workers; commercial negative donor pooled serum from the Dutch bloodbank); type: binding, human; design: Binding of Control serum LUMC to linear peptides / Binding of Control serum Blood-bank to linear peptides / Binding of Control serum LUMC to looped peptides / Binding of Control Serum Blood-Bank to Looped peptides / Binding of Control serum LUMC to linear peptides of the protein M of SARS-CoV Urbani / Binding of Control serum Blood-bank to linear peptides of the protein M of SARS-CoV Urbani / Binding of Control serum LUMC to looped peptides of the protein M of SARS-CoV Urbani / Binding of Control Serum Blood-Bank to Looped peptides of the protein M of SARS-CoV Urbani: unit not given here
[4] = system: recombinant human anti-SARS-CoV antibody 03-018; type: binding; design: Binding of antibody 03-018 to linear peptides of the N protein of SARS-CoV Urbani / Binding of antibody 03-018 to looped/cyclic peptides of the N protein of SARS-CoV Urbani: unit not given here

Sequence: NGPQSNQRSAPRITF
- Recognition of the peptide by the rabbit serum [1]: also recognized
- Binding of serum 1a to linear peptides of protein N of SARS-CoV Urbani [2]: 0.2
- Binding of serum 1a to looped/cyclic peptides of protein N of SARS-CoV Urbani [2]: 0.3
- Binding of serum 1b to linear peptides of protein N of SARS-CoV Urbani [2]: 0.1
- Binding of serum 1b to looped/cyclic peptides of protein N of SARS-CoV Urbani [2]: 0.2
- Binding of serum 2 to linear peptides of protein N of SARS-CoV Urbani [2]: 0.2
- Binding of serum 2 to looped/cyclic peptides of protein N of SARS-CoV Urbani [2]: 0.5
- Binding of serum 6 to linear peptides of protein N of SARS-CoV Urbani [2]: 0.2
- Binding of serum 6 to looped/cyclic peptides of protein N of SARS-CoV Urbani [2]: 0.3
- Binding of serum 37 to linear peptides of protein N of SARS-CoV Urbani [2]: 0.8
- Binding of serum 37 to looped/cyclic peptides of protein N of SARS-CoV Urbani [2]: 0.8
- Binding of serum 62 to linear peptides of protein N of SARS-CoV Urbani [2]: 0.5
- Binding of serum 62 to looped/cyclic peptides of protein N of SARS-CoV Urbani [2]: 0.6
- Binding of serum London to linear peptides of protein N of SARS-CoV Urbani [2]: 0.4
- Binding of serum London to looped/cyclic peptides of protein N of SARS-CoV Urbani [2]: 0.5
- Binding of serum SARS-green to linear peptides of protein N of SARS-CoV Urbani [2]: 0.4
- Binding of serum SARS-green to looped/cyclic peptides of protein N of SARS-CoV Urbani [2]: 0.5
- Binding of serum SARS-yellow to linear peptides of protein N of SARS-CoV Urbani [2]: 0.5
- Binding of serum SARS-yellow to looped/cyclic peptides of protein N of SARS-CoV Urbani [2]: 0.6
- Binding of Control Serum Blood-Bank to Looped peptides [3]: 0.7
- Binding of Control serum Blood-bank to linear peptides [3]: 0.8
- Binding of Control serum LUMC to linear peptides [3]: 0.6
- Binding of Control serum LUMC to looped peptides [3]: 0.8
- Recognition of the peptide by antibody 03-018 [4]: recognized

Sequence: NNNAATVLQLPQGTT
- Binding of a rabbit serum to linear peptides of protein N of SARS-CoV Urbani (Rabbit serum linear peptides) [1]: 0.1
- Binding of a rabbit serum to looped/cyclic peptides of protein N of SARS-CoV Urbani (Rabbit serum looped peptides) [1]: 0.4
- Binding of serum 1a to linear peptides of protein N of SARS-CoV Urbani [2]: 0.2
- Binding of serum 1a to looped/cyclic peptides of protein N of SARS-CoV Urbani [2]: 0.4
- Binding of serum 1b to linear peptides of protein N of SARS-CoV Urbani [2]: 0.1
- Binding of serum 1b to looped/cyclic peptides of protein N of SARS-CoV Urbani [2]: 0.3
- Binding of serum 2 to linear peptides of protein N of SARS-CoV Urbani [2]: 0.2
- Binding of serum 2 to looped/cyclic peptides of protein N of SARS-CoV Urbani [2]: 0.5
- Binding of serum 6 to linear peptides of protein N of SARS-CoV Urbani [2]: 0.1
- Binding of serum 6 to looped/cyclic peptides of protein N of SARS-CoV Urbani [2]: 0.2
- Binding of serum 37 to linear peptides of protein N of SARS-CoV Urbani [2]: 0.7
- Binding of serum 37 to looped/cyclic peptides of protein N of SARS-CoV Urbani [2]: 0.6
- Binding of serum 62 to linear peptides of protein N of SARS-CoV Urbani [2]: 0.5
- Binding of serum 62 to looped/cyclic peptides of protein N of SARS-CoV Urbani [2]: 0.5
- Binding of serum London to linear peptides of protein N of SARS-CoV Urbani [2]: 0.5
- Binding of serum London to looped/cyclic peptides of protein N of SARS-CoV Urbani [2]: 0.5
- Binding of serum SARS-green to linear peptides of protein N of SARS-CoV Urbani [2]: 0.4
- Binding of serum SARS-green to looped/cyclic peptides of protein N of SARS-CoV Urbani [2]: 0.5
- Binding of serum SARS-yellow to linear peptides of protein N of SARS-CoV Urbani [2]: 0.7
- Binding of serum SARS-yellow to looped/cyclic peptides of protein N of SARS-CoV Urbani [2]: 0.4
- Binding of Control Serum Blood-Bank to Looped peptides [3]: 0.7
- Binding of Control serum Blood-bank to linear peptides [3]: 0.8
- Binding of Control serum LUMC to linear peptides [3]: 0.7
- Binding of Control serum LUMC to looped peptides [3]: 0.8
- Binding of antibody 03-018 to linear peptides of the N protein of SARS-CoV Urbani [4]: 0.1
- Binding of antibody 03-018 to looped/cyclic peptides of the N protein of SARS-CoV Urbani [4]: 0.3
